US20200024246A1, “POGOSTONE DERIVATIVES AND METHODS OF USING THE SAME” (Hamyard Associates LLC, priority 2018, published 2020)
“Also recorded” adds a separate entry of the source. Where two headings read alike, the source gives them in different places.

Key:
adult, female mosquitoes = test: Topical application on adult female mosquitoes (24-h mortality, 1-h knockdown); format: in vivo, mosquito; details: for ED50: read-out: KD50 (ug/g mosquito); for LD50: read-out: LD50 (ug/g mosquito); for insecticidal properties compared with natural pogostone, natural pyrethrins or terpenoids: words, refers to Table 1
adult female mosquitoes = test: whole plant or invertebrate; details: for LD50: topical, 24 h, read-out: 24-hour Mortality LD50 (μg/g mosquito); for Percent Knockdown at 1 Hour / Percent Mortality: mosquitoes; for Percent Knockdown at 1 Hour: 0.5% solutions; for Percent Mortality: 24 hours
Experimental: The first group of DHAA-based derivatives that were tested included Formula A2, Formula B3, Formula C3, and Formula D3. A solution of 0.5% or 1.5% of each of these compounds was applied to the mosquitoes, as described above. […] Acetone was used as a control.

[1] = test system: 3-4 instar Aedes aegypti larvae; test: Mosquito larvicide bioassay; format: in vivo
Experimental: Mosquito larvicide bioassays were performed by introducing various concentrations of test compounds (pyrone derivatives and rotenone) into acetone at various concentrations. 200 uL of these solutions were added to individual cups containing 10, 3-4 instar Aedes aegypti larvae and 25 mL of DI water. 2 mg of Tetramin™ was provided to each cup as a food source. […] Ataxia was used as the indicator of larval mortality. At least 5 concentrations were used which caused between 10 and 90% mortality. LC50 values were calculated using a PROC PROBIT model in SAS 9.4.

[2] = Mosquito Knockdown Properties (1 hour), topical application
[3] = Mosquito Toxicity (24 hours), topical application to pronotum

Cc1ccc(C(C)C)cc1O [Carvacrol, reference compound]
ED50 (adult, female mosquitoes; topical, 1 h): 2000 mg/kg
LD50 (adult, female mosquitoes; topical, 24 h): 3400 mg/kg
LD50 (adult female mosquitoes): 3400 mg/kg

CCC(=O)c1c(O)cc(C)oc1=O [Formula 7]
ED50 (adult, female mosquitoes; [2]): > 1500 mg/kg
LD50 (adult, female mosquitoes; [3]): > 1500 mg/kg

CCOC(=O)/C(O)=C/C(=O)c1c(O)cc(C)oc1=O [Formula 8]
ED50 (adult, female mosquitoes; [2]): > 1500 mg/kg
LD50 (adult, female mosquitoes; [3]): > 1500 mg/kg

CC(C)CCC(=O)c1c(O)cc(-c2ccccc2)oc1=O [Formula 9]
ED50 (adult, female mosquitoes; [2]): > 1500 mg/kg
LD50 (adult, female mosquitoes; [3]): > 1500 mg/kg

CC(C)CCC(=O)c1c(O)cc(C(C)(C)C)oc1=O [Formula 11]
ED50 (adult, female mosquitoes; [2]): > 1500 mg/kg
LD50 (adult, female mosquitoes; [3]): > 1500 mg/kg

CC(=O)C1=Cc2ccccc2OC1 [Formula 16]
LD50 (adult, female mosquitoes; topical, 24 h): > 1500 mg/kg

CC(C)CCC(=O)C1=Cc2ccccc2OC1 [Formula 17]
ED50 (adult, female mosquitoes; topical, 1 h): > 1500 mg/kg
LD50 (adult, female mosquitoes; topical, 24 h): > 1500 mg/kg

CCCCCCCCCC(=O)c1c(O)c2ccccc2oc1=O [Formula 18]
ED50 (adult, female mosquitoes; topical, 1 h): > 1500 mg/kg
LD50 (adult, female mosquitoes; topical, 24 h): > 1500 mg/kg

CCCCCCCCCC(=O)c1c(O)c2ccccc2n(C)c1=O [Formula 20]
LD50 (adult, female mosquitoes; topical, 24 h): > 1500 mg/kg

Cc1ccc2oc(=O)c(C(=O)CCC(C)C)c(O)c2c1 [Formula 21]
ED50 (adult, female mosquitoes; topical, 1 h): > 1500 mg/kg
LD50 (adult, female mosquitoes; topical, 24 h): 534 mg/kg

C=CCCC(=O)c1cc2ccccc2oc1=O [Formula 22]
LD50 (adult, female mosquitoes; topical, 24 h): > 1500 mg/kg

CCCCCCCC(=O)c1c(O)c2ccccc2oc1=O [Formula 25]
ED50 (adult, female mosquitoes; topical, 1 h): > 1500 mg/kg
LD50 (adult, female mosquitoes; topical, 24 h): > 1500 mg/kg

O=C(c1c(O)c2ccccc2oc1=O)C1CCC1 [Formula 27]
ED50 (adult, female mosquitoes; topical, 1 h): > 1500 mg/kg
LD50 (adult, female mosquitoes; topical, 24 h): 28.8 mg/kg
insecticidal properties compared with natural pogostone, natural pyrethrins or terpenoids (adult, female mosquitoes): possessed better insecticidal properties at least as well as natural pyrethrins
1-hour Knockdown EC50 (μg/g mosquito) (adult female mosquitoes; in vivo): >1500 μg/g mosquito
LD50 (adult female mosquitoes): 29 mg/kg

CCOC(=O)/C(C(C)=O)=C(/O)c1ccccc1 [Formula 28]
ED50 (adult, female mosquitoes; topical, 1 h): > 1500 mg/kg
LD50 (adult, female mosquitoes; topical, 24 h): > 1500 mg/kg
LC50 ([1]; Aedes aegypti, 24 h): 9.16 µg/mL
larvicidal properties compared with natural pogostone or rotenone ([1]; words): possessed better larvicidal properties than natural pogostone

CC(C)C(=O)c1c(O)c2cc(Cl)ccc2oc1=O [Formula 34]
ED50 (adult, female mosquitoes; [2]): > 1500 mg/kg
LD50 (adult, female mosquitoes; [3]): 111 mg/kg
insecticidal properties compared with natural pogostone, natural pyrethrins or terpenoids (adult, female mosquitoes): possessed better insecticidal properties than natural pogostone

Cc1cc(O)c(C(=O)Nc2ccccc2)c(=O)o1 [Formula A3]
Percent Knockdown at 1 Hour (adult female mosquitoes): 4%
Percent Mortality (adult female mosquitoes; at 0.5%): 5%
Percent Mortality (adult female mosquitoes; at 1.5%): 19%

CCCCC(CC)CNC(=O)c1c(O)cc(C)oc1=O (stereo not drawn) [Formula B3]
Percent Knockdown at 1 Hour (adult female mosquitoes): 2%
Percent Mortality (adult female mosquitoes; at 0.5%): 9%
Percent Mortality (adult female mosquitoes; at 1.5%): 16%

Cc1cc(O)c(C(=O)COC(C)C)c(=O)o1 [Formula C3]
Percent Knockdown at 1 Hour (adult female mosquitoes): 98%
Percent Mortality (adult female mosquitoes; at 0.5%): 89%
Percent Mortality (adult female mosquitoes; at 1.5%): 88%
LD50 (adult female mosquitoes): 183 mg/kg
ranking in knockdown and mortality screenings (adult female mosquitoes; words): performed the best in terms of highest percent knockdown and mortality; also recorded: performed the best in the initial knockdown and mortality screenings
